This is an account of results in patent publication US5686486A, “4-hydroxy-benzopyran-2-ones and 4-hydroxy-cycloalkyl[b]pyran-2-ones useful to treat retroviral infections” (priority 1995, dated 1997).

In the assay the target is HIV-1 protease (Human immunodeficiency virus type 1 group M subtype B, UniProt P04585). Briefly: biochemical. The settings on record: for inhibition at 0.123 µM: read-out: HIV-1 Protease % Inhib, dose 0.123 uM; for inhibition at 0.37 µM: read-out: HIV-1 Protease % Inhib, dose 0.370 uM. In outline:
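Biotinylated, FITC-labeled peptide substrate (20 μl of 0.2 μM) incubated with HIV-1 protease (10 μl of 0.1 μM) and compound in 0.1 M sodium acetate pH 5.5, 1.0 M NaCl, 0.05% NP-40, 1 h, room temperature, dark. Streptavidin beads then capture uncleaved substrate; filtered labeled product read by fluorescence, giving percent inhibition.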

[1] abbreviates: read-out: HIV-1 Protease % Inhib, dose 1.100 uM.
Where [2] appears, read: read-out: HIV-1 Protease % Inhib, dose 3.300 uM.
The mark [3] stands for this setting: read-out: HIV-1 Protease % Inhib, dose 10.000 uM.
The mark [4] stands for this setting: read-out: HIV-1 Protease % Inhib, dose 30.000 uM.

SMILES strings stand for the structures. Read-outs that look alike come from different tables or passages of the source.

For `O=c1oc2c(c(O)c1C(c1cccc(NS(=O)(=O)c3cccc(Cl)c3)c1)C1CC1)CCCCCC2` (stereo not shown) [Example 289], the inhibition at 0.123 µM came to 63.7% and the inhibition at 0.37 µM amounted to 80%. The inhibition at 1.1 µM under setting [1] is 91.1%. Besides, under setting [2], the inhibition at 3.3 µM came out at 97.3%. Further, the inhibition at 10 µM under setting [3] was 95.3%. The inhibition at 30 µM under setting [4] came to 101%.

As for `O=c1oc2c(c(O)c1C(c1cccc(NS(=O)(=O)c3cccc(Br)c3)c1)C1CC1)CCCCCC2` (stereo not shown) [Example 291, 3-Bromo-N-[3-[cyclopropyl(5,6,7,8,9,10-hexahydro-4-hydroxy-2-oxo-2H-cycloocta[b]pyran-3-yl)methyl]phenyl]-benzenesulfonamide], the inhibition at 0.123 µM was determined as 80.4% and the inhibition at 0.37 µM amounted to 108%. In addition, the inhibition at 1.1 µM under setting [1] is 109%. Also, the inhibition at 3.3 µM under setting [2] was found to be 122%. Also, under setting [3], the inhibition at 10 µM came to 118%. Besides, the inhibition at 30 µM under setting [4] stood at 117%.

`O=C(O)c1cccc(S(=O)(=O)Nc2cccc(C(c3c(O)c4c(oc3=O)CCCCCC4)C3CC3)c2)c1` (stereo not shown) [Example 292, 3-[[[3-[Cyclopropyl(5,6,7,8,9,10-hexahydro4-hydroxy-2-oxo-2H-cycloocta[b]pyran-3-yl)methyl]phenyl]amino]sulfonyl]-benzoic acid]: the inhibition at 0.123 µM came to 74.4% and the inhibition at 0.37 µM is 104%. Moreover, the inhibition at 1.1 µM under setting [1] amounted to 111%. Besides, the inhibition at 3.3 µM under setting [2] stood at 125%. Further, under setting [3], the inhibition at 10 µM came to 115%. Further, the inhibition at 30 µM under setting [4] was found to be 111%.

As for `O=c1oc2c(c(O)c1C(c1cccc(NS(=O)(=O)c3ccccc3Cl)c1)C1CC1)CCCCCC2` (stereo not shown) [Example 293, 2-Chloro-N-[3-[cyclopropyl(5,6,7,8,9,10-hexahydro-4-hydroxy-2-oxo-2H-cycloocta[b]pyran-3-yl)methyl]phenyl]-benzenesulfonamide], the inhibition at 0.123 µM is 54.9% and the inhibition at 0.37 µM was 82.4%. Moreover, the inhibition at 1.1 µM under setting [1] was 96.8%. Under setting [2], the inhibition at 3.3 µM was 107%. Besides, the inhibition at 10 µM under setting [3] worked out at 105%. The inhibition at 30 µM under setting [4] amounted to 109%.

In the case of `O=c1oc2c(c(O)c1C(c1cccc(NS(=O)(=O)c3c(Cl)cccc3Cl)c1)C1CC1)CCCCCC2` (stereo not shown) [Example 295, 2,6-Dichloro-N-[3-[cyclopropyl(5,6,7,8,9,10-hexahydro-4-hydroxy-2'-oxo-2H-cycloocta[b]pyran-3-yl)methyl]phenyl]-benzenesulfonamide], where the note is “dose 1.100 uM, read-out: HIV-1 Protease % Inhib”, the inhibition at 1.1 µM worked out at 25.9%. In addition, the inhibition at 3.3 µM (dose 3.300 uM, read-out: HIV-1 Protease % Inhib) was 57%. Further, the inhibition at 10 µM (dose 10.000 uM, read-out: HIV-1 Protease % Inhib) amounted to 87.5%. In addition, for the setting “dose 30.000 uM, read-out: HIV-1 Protease % Inhib”, the inhibition at 30 µM came out at 100%.

Consider `Cn1cnc(S(=O)(=O)Nc2cccc([C@@H](c3c(O)c4c(oc3=O)CCCCCC4)C3CC3)c2)c1` [Example 297, N-[3-[Cyclopropyl(5,6,7,8,9,10-hexahydro-4-hydroxy-2-oxo-2H-cycloocta-3-yl)methyl]phenyl]-1-methyl-(S)-1H-imidazole-4-sulfonamide], for which the inhibition at 0.123 µM stood at 72% and the inhibition at 0.37 µM is 86%. Further, the inhibition at 1.1 µM under setting [1] stood at 101%. Moreover, the inhibition at 3.3 µM under setting [2] came to 99.8%. Under setting [3], the inhibition at 10 µM is 102%. The inhibition at 30 µM under setting [4] stood at 99.5%.

`O=c1oc2c(c(O)c1C(c1cccc(NS(=O)(=O)c3ccc(I)cc3)c1)C1CC1)CCCCCC2` (stereo not shown) [Example 300, N-[3-[Cyclopropyl(5,6,7,8,9,10-hexahydro-4-hydroxy-2-oxo-2H-cycloocta[b]pyran-3-yl)methyl]phenyl]-4-iodo-benzenesulfonamide]: the inhibition at 0.123 µM was found to be 68.8% and the inhibition at 0.37 µM came to 92.2%. Besides, the inhibition at 1.1 µM under setting [1] amounted to 101%. Moreover, the inhibition at 3.3 µM under setting [2] amounted to 102%. The inhibition at 10 µM under setting [3] amounted to 108%. For the same compound, under setting [4], the inhibition at 30 µM worked out at 108%.
